The values below come from US7491794B2, “Macrocyclic compounds as inhibitors of viral replication” (Intermune, Inc., priority 2003, dated 2009).

Experiment [1] deals with HCV sub-genomic replicon, GS4.3. In words: Quantitation by ELISA of NPTII in the HCV sub-genomic replicon, GS4.3, Section B. The class given is cell-based. The settings on record: Hepatitis C virus; GS4.3 cells, 72 h incubation; read-out: Replicon EC50. The source says: Quantitation by ELISA of the Selectable Marker Protein, Neomycin Phosphotransferase II (NPTII) in the HCV Sub-Genomic Replicon, GS4.3
The HCV sub-genomic replicon (1377/NS3-3′, accession No. AJ242652), stably maintained in HuH-7 hepatoma cells, was created by Lohmann et al. Science 285: 110-113 (1999). The replicon-containing cell culture, designated GS4.3, was obtained from Dr. Christoph Seeger of the Institute for Cancer Research, Fox Chase Cancer Center, Philadelphia, Pa.
GS4.3 cells were maintained at 37° C., 5% CO2, in DMEM (Gibco 11965-092) supplemented with L-glutamine 200 mM (100×) (Gibco25030-081), non-essential amino acids (NEAA)(Biowhittaker 13-114E), heat-inactivated (HI) Fetal Bovine Serum(FBS)(Hyclone SH3007.03) and 750 μg/ml geneticin (G418)(Gibco 10131-035). Cells were sub-divided 1:3 or 4 every 2-3 days.
24 hours prior to the assay, GS4.3 cells were collected, counted, and plated in 96-well plates (Costar 3585) at 7500 cells/well in 100 μl standard maintenance medium (above) and incubated in the conditions above. To initiate the assay, culture medium was removed, cells were washed once with PBS (Gibco 10010-023) and 90 μl Assay Medium (DMEM, L-glutamine, NEAA, 10% HI FBS, no G418) was added. Inhibitors were made as a 10× stock in Assay Medium, (3-fold dilutions from 10 μM to […] final concentration, final DMSO concentration 1%), 10 μl were added to duplicate wells, plates were rocked to mix, and incubated as above for 72 h.
An NPTII ELISA kit was obtained from AGDIA, Inc. (Compound direct ELISA test system for Neomycin Phosphotransferase II, PSP 73000/4800). Manufacturer's instructions were followed, with some modifications. 10×PEB-1 lysis buffer was made up to include 500 μM PMSF (Sigma P7626, 50 mM stock in isopropanol). After 72 h incubation, cells were washed once with PBS and 150 μl PEB-1 with PMSF was added per well. Plates were agitated vigorously for 15 minutes, room temperature, then frozen at −70° C. Plates were thawed, lysates were mixed thoroughly, and 100 μl were applied to an NPTII Elisa plate. A standard curve was made. Lysate from DMSO-treated control cells was pooled, serially diluted with PEB-1 with PMSF, and applied to duplicate wells of the ELISA plate, in a range of initial lysate amount of 150u1-2.5 ul. In addition, 100 μl buffer alone was applied in duplicate as a blank. Plates were sealed and gently agitated at room temperature for 2 h. Following capture incubation, the plates were washed 5×300 μl with PBS-T (0.5% Tween-20, PBS-T was supplied in the ELISA kit). For detection, a 1× dilution of enzyme conjugate diluent MRS-2 (5×) was made in PBS-T, into which 1:100 dilutions of enzyme conjugates A and B were added, as per instructions. Plates were resealed, and incubated with agitation, covered, room temperature, for 2 h. The washing was then repeated and 100 μl of room temperature TMB substrate was added. After approximately 30 minutes incubation (room temperature, agitation, covered), the reaction was stopped with 50 μl 3M sulfuric acid. Plates were read at 450 nm on a Molecular Devices Versamax plate reader.
Inhibitor effect was expressed as a percentage of DMSO-treated control signal, and inhibition curves were calculated using a 4-parameter equation: y=A+((B−A)/(1+((C/x)^D))), where C is half-maximal activity or EC50.

The target of the next experiment is T1, NS3-NS4A protease (Hepatitis C virus genotype 1a, UniProt P27958).
T1 construct: Recombinant E. coli or Baculovirus full-length NS3 was diluted to 3.33 μM with assay buffer; made in house; host or cells: E. coli or baculovirus (BV) system
T1 sequence (P27958 1027-1657): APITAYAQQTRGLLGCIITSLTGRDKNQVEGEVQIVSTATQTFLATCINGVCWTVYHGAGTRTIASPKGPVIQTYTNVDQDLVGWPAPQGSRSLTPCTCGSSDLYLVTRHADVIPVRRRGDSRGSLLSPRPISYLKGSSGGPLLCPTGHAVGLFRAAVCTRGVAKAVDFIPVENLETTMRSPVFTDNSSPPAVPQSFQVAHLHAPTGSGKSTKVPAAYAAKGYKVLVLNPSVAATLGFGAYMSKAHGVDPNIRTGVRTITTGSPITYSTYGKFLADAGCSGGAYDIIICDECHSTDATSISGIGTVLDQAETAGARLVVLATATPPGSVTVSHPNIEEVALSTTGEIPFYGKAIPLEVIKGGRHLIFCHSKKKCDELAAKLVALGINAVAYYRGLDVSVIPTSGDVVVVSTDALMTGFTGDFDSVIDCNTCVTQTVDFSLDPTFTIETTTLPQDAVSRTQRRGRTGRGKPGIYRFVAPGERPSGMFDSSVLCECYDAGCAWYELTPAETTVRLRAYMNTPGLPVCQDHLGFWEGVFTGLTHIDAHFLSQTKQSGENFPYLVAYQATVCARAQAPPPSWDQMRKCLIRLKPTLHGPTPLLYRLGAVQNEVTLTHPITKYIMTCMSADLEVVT
As to the kind of experiment: NS3-NS4A protease assay (NS3 inhibition assay, RETS1 substrate), Section B. The class given is biochemical. As to conditions: read-out: NS3-NS4A IC50. Summed up:
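Full-length NS3 (E. coli or baculovirus) precomplexed with excess NS4A-2 peptide, run at 2 nM (E. coli) or 3 nM (BV) NS3; compounds pre-incubated 10 min at room temperature before RETS1 substrate. Fluorescence (ex 335/em 495 nm) read kinetically 30 min; IC50 from four-parameter fit, converted to Ki via Ki=IC50/(1+[S]/Km).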

Take `CC(C)(C)OC(=O)N[C@H]1CCCCC/C=C\[C@@H]2C[C@@]2(C(=O)NS(=O)(=O)C2CC2)NC(=O)[C@@H]2C[C@@H](OC(=O)N3CCc4cc(F)ccc4C3)CN2C1=O` [AR00301751, (1S,4R,6S,14S,18R)-6-Fluoro-3,4-dihydro-1H-isoquinoline-2-carboxylic acid 14-tert-butoxycarbonylamino-4-cyclopropanesulfonylaminocarbonyl-2,15-dioxo-3,16-diaza-tricyclo[14.3.0.0^4,6]nonadec-7-en-18-yl ester]: in experiment [1], the concentration for a half-maximal effect (EC50) was less than 100 nM. In addition, the IC50 on NS3-NS4A protease was less than 100 nM.

Take `O=C(N[C@H]1CCCCC/C=C\[C@@H]2C[C@@]2(C(=O)NS(=O)(=O)C2CC2)NC(=O)[C@@H]2C[C@@H](OC(=O)N3CCc4ccccc4[C@H]3CN3CCCCC3)CN2C1=O)OC1CCCC1` [AR00320557, (1S,4R,6S,14S,18R)-1-Piperidin-1S-ylmethyl-3,4-dihydro-1H-isoquinoline-2-carboxylic acid 14-cyclopentyloxycarbonylamino-4-cyclopropanesulfonylaminocarbonyl-2,15-dioxo-3,16-diaza-tricyclo[14.3.0.0^4,6]nonadec-7-en-18-yl ester]: in experiment [1], the EC50 was less than 100 nM. At NS3-NS4A protease, the half-inhibitory concentration (IC50) is less than 100 nM.

Turning to `CC(C)(C)OC(=O)N[C@H]1CCCCC/C=C\[C@@H]2C[C@@]2(C(=O)NS(=O)(=O)c2ccccc2)NC(=O)[C@@H]2C[C@@H](OC(=O)N3Cc4ccccc4C3)CN2C1=O` [AR00333802, (1S,4R,6S,14S,18R)-1,3-Dihydro-isoindole-2-carboxylic acid 4-benzenesulfonylaminocarbonyl-14-tert-butoxycarbonylamino-2,15-dioxo-3,16-diaza-tricyclo[14.3.0.0^4,6]nonadec-7-en-18-yl ester], the concentration giving a half-maximal response (EC50) in experiment [1] is less than 100 nM. Moreover, the half-inhibitory concentration (IC50) on NS3-NS4A protease was less than 100 nM.

`O=C(N[C@H]1CCCCC/C=C\[C@@H]2C[C@@]2(C(=O)NS(=O)(=O)C2CC2)NC(=O)C2C[C@@H](OC(=O)N3CCc4ccccc4C3CN3CCCCC3)CN2C1=O)OC1CCCC1` (stereo partly drawn) [AR00320506, (1S,4R,6S,14S,18R)-1-Piperidin-1-ylmethyl-3,4-dihydro-1H-isoquinoline-2-carboxylic acid 14-cyclopentyloxycarbonylamino-4-cyclopropanesulfonylaminocarbonyl-2,15-dioxo-3,16-diaza-tricyclo[14.3.0.0^4,6]nonadec-7-en-18-yl ester]: the concentration for a half-maximal effect (EC50) in experiment [1] is less than 100 nM. For the same molecule, the concentration for half-maximal inhibition (IC50) at NS3-NS4A protease was less than 100 nM.

On to `CC(C)(C)NC(=O)N[C@H]1CCCCC/C=C\[C@@H]2C[C@@]2(C(=O)NS(=O)(=O)C2CC2)NC(=O)[C@@H]2C[C@@H](OC(=O)N3Cc4cccc(F)c4C3)CN2C1=O` [AR00338066, (1S,4R,6S,14S,18R)-4-Fluoro-1,3-dihydro-isoindole-2-carboxylic acid 14-(3-tert-butyl-ureido)-4-cyclopropanesulfonylaminocarbonyl-2,15-dioxo-3,16-diaza-tricyclo[14.3.0.0^4,6]nonadec-7-en-18-yl ester], for which, in experiment [1], the EC50 was less than 100 nM. Moreover, on NS3-NS4A protease, the IC50 is less than 100 nM.

Take `CC(C)(C)OC(=O)N[C@H]1CCCCC/C=C\[C@@H]2C[C@@]2(C(=O)NS(=O)(=O)c2ccc(C(=O)O)cc2)NC(=O)[C@@H]2C[C@@H](OC(=O)N3Cc4ccccc4C3)CN2C1=O` [AR00365387, (1S,4R,6S,14S,18R)-1,3-Dihydro-isoindole-2-carboxylic acid 14-tert-butoxycarbonylamino-4-(4-carboxy-benzenesulfonylaminocarbonyl)-2,15-dioxo-3,16-diaza-tricyclo[14.3.0.0^4,6]nonadec-7-en-18-yl ester]: in experiment [1], the 50% effective concentration (EC50) was less than 100 nM. Besides, on NS3-NS4A protease, the half-inhibitory concentration (IC50) is less than 100 nM.

Regarding `CC(C)(C)OC(=O)N[C@H]1CCCCC/C=C\[C@@H]2C[C@@]2(C(=O)O)NC(=O)[C@@H]2C[C@@H](OC(=O)N3CCc4nc(Nc5ccccc5)sc4C3)CN2C1=O` [AR00304000, (1S,4R,6S,14S,18R)-14-tert-Butoxycarbonylamino-2,15-dioxo-18-(2-phenylamino-6,7-dihydro-4H-thiazolo[5,4-c]pyridine-5-carbonyloxy)-3,16-diaza-tricyclo[14.3.0.0^4,6]nonadec-7-ene-4-carboxylic acid], in experiment [1], the EC50 is less than 10000 nM. For the same molecule, the concentration for half-maximal inhibition (IC50) on NS3-NS4A protease was less than 1000 nM.

For the molecule `O=C(N[C@H]1CCCCC/C=C\[C@@H]2C[C@@]2(C(=O)NS(=O)(=O)C2CC2)NC(=O)[C@@H]2C[C@@H](OC(=O)N3Cc4ccc(Cl)cc4C3)CN2C1=O)OC1CCCC1` [AR00334218, (1S,4R,6S,14S,18R)-5-Chloro-1,3-dihydro-isoindole-2-carboxylic acid 14-cyclopentyloxycarbonylamino-4-cyclopropanesulfonylaminocarbonyl-2,15-dioxo-3,16-diaza-tricyclo[14.3.0.0^4,6]nonadec-7-en-18-yl ester], the concentration giving a half-maximal response (EC50) in experiment [1] is less than 100 nM. The IC50 on NS3-NS4A protease was less than 100 nM.

Take `COCC1c2ccc(OC)cc2CCN1C(=O)O[C@@H]1C[C@H]2C(=O)N[C@]3(C(=O)O)C[C@H]3/C=C\CCCCC[C@H](NC(=O)OC(C)(C)C)C(=O)N2C1` (stereo partly drawn) [AR00333842, (1S,4R,6S,14S,18R)-14-tert-Butoxycarbonylamino-18-(6-methoxy-1-methoxymethyl-3,4-dihydro-1H-isoquinoline-2-carbonyloxy)-2,15-dioxo-3,16-diaza-tricyclo[14.3.0.0^4,6]nonadec-7-ene-4-carboxylic acid]: the half-maximal effective concentration (EC50) in experiment [1] is less than 10000 nM. For the same molecule, the half-inhibitory concentration (IC50) at NS3-NS4A protease was less than 1000 nM.

On to `O=C(N[C@H]1CCCCC/C=C\[C@@H]2C[C@@]2(C(=O)NS(=O)(=O)C2CC2)NC(=O)[C@@H]2C[C@@H](OC(=O)N3Cc4ccccc4C3)CN2C1=O)OC1CCOCC1` [AR00320081, (1S,4R,6S,14S,18R)-1,3-Dihydro-isoindole-2-carboxylic acid 4-cyclopropanesulfonylaminocarbonyl-2,15-dioxo-14-(tetrahydro-pyran-4-yloxycarbonylamino)-3,16-diaza-tricyclo[14.3.0.0^4,6]nonadec-7-en-18-yl ester], for which the EC50 in experiment [1] was less than 100 nM. The half-inhibitory concentration (IC50) at NS3-NS4A protease is less than 100 nM.

With `CC(C)(C)OC(=O)N[C@H]1CCCCC/C=C\[C@@H]2C[C@@]2(C(=O)NS(=O)(=O)C2CC2)NC(=O)[C@@H]2C[C@@H](OC(=O)N3Cc4ccc(N)cc4C3)CN2C1=O` [AR00334286, (1S,4R,6S,14S,18R)-5-Amino-1,3-dihydro-isoindole-2-carboxylic acid 14-tert-butoxycarbonylamino-4-cyclopropanesulfonylaminocarbonyl-2,15-dioxo-3,16-diaza-tricyclo[14.3.0.0^4,6]nonadec-7-en-18-yl ester], in experiment [1], the 50% effective concentration (EC50) was less than 100 nM. Moreover, the half-inhibitory concentration (IC50) at NS3-NS4A protease was less than 100 nM.

`O=C(N[C@H]1CCCCC/C=C\[C@@H]2C[C@@]2(C(=O)NS(=O)(=O)C2CC2)NC(=O)[C@@H]2C[C@@H](OC(=O)N3CCc4ccccc4C3)CN2C1=O)OCC(F)F` [AR00320579, (1S,4R,6S,14S,18R)-3,4-Dihydro-1H-isoquinoline-2-carboxylic acid 4-cyclopropanesulfonylaminocarbonyl-14-(2,2-difluoro-ethoxycarbonylamino)-2,15-dioxo-3,16-diaza-tricyclo[14.3.0.0^4,6]nonadec-7-en-18-yl ester]: the 50% effective concentration (EC50) in experiment [1] is less than 100 nM. Further, at NS3-NS4A protease, the half-maximal inhibitory concentration (IC50) is less than 100 nM.
